The subject of this test is CD2F1 mice, L1210 leukemia ip, survival T/C. In words: NCI In Vivo Anticancer Drug Screen. Data for tumor model L1210 Leukemia (intraperitoneal) in CD2F1 (CDF1) mice. The conditions noted are these: higher = longer survival. A digest of the protocol: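 Tumor-bearing mice (transplanted tumor) were split into treated and vehicle control groups, and the measured endpoint of each treated group was divided by that of its vehicle controls.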

[1] abbreviates: endpoint: mean survival time, dose: 100.0 mg/kg/injection, schedule: Q04DX003 (ip), vehicle: saline with Tween-80.
[2] abbreviates: endpoint: mean survival time, dose: 200.0 mg/kg/injection, schedule: Q04DX003 (ip), vehicle: saline with Tween-80.
Where [3] appears, read: endpoint: mean survival time, dose: 400.0 mg/kg/injection, schedule: Q04DX003 (ip), vehicle: saline with Tween-80.
[4] abbreviates: endpoint: mean survival time, dose: 100.0 mg/kg/injection, schedule: Q01DX009 (ip), vehicle: saline.
Setting [5] is: endpoint: mean survival time, dose: 200.0 mg/kg/injection, schedule: Q01DX009 (ip), vehicle: saline.
Setting [6] is: endpoint: mean survival time, dose: 400.0 mg/kg/injection, schedule: Q01DX009 (ip), vehicle: saline.
Where [7] appears, read: endpoint: mean survival time, dose: 100.0 mg/kg/injection, schedule: Q01DX001 (ip), vehicle: saline with Tween-80.
[8] abbreviates: endpoint: mean survival time, dose: 200.0 mg/kg/injection, schedule: Q01DX001 (ip), vehicle: saline with Tween-80.
Setting [9] is: endpoint: mean survival time, dose: 25.0 mg/kg/injection, schedule: Q04DX003 (ip), vehicle: water.
The mark [10] stands for this setting: endpoint: mean survival time, dose: 50.0 mg/kg/injection, schedule: Q04DX003 (ip), vehicle: water.
[11] abbreviates: endpoint: mean survival time, dose: 100.0 mg/kg/injection, schedule: Q04DX003 (ip), vehicle: water.

Several values for one entry are separate records, joined by “and”; a condition that tells them apart may be missing. Equal entries are not always repeated. Toxic doses and inconclusive results are not listed. Non-standard residues stand in square brackets, D forms with d. Residues, ends and D or L forms follow the SMILES beside them. ξ: configuration not given here. ξI = CCC(C)C(N)C(=O)O

This passage reports T/C results from PubChem BioAssay AID256 (DTP/NCI, 2004).

For the compound `Nc1nc2ncc(CNc3ccc(C(=O)NC(CCC(=O)O)C(=O)O)cc3)nc2c(=O)[nH]1.[NH-]C1CCCCC1[NH-].[Pt+2]` (centres undefined), the T/C reads like this: (endpoint: median survival time, dose: 3.12 mg/kg/injection, schedule: Q04DX003 (ip), vehicle: saline) 102 % of control and 104 % of control; (endpoint: median survival time, dose: 6.25 mg/kg/injection, schedule: Q04DX003 (ip), vehicle: saline) 107 % of control and 108 % of control; (endpoint: median survival time, dose: 12.5 mg/kg/injection, schedule: Q04DX003 (ip), vehicle: saline) 105 % of control; (endpoint: median survival time, dose: 25.0 mg/kg/injection, schedule: Q04DX003 (ip), vehicle: saline) 116 % of control and 108 % of control; (endpoint: median survival time, dose: 50.0 mg/kg/injection, schedule: Q04DX003 (ip), vehicle: saline) 114 % of control and 111 % of control; (endpoint: median survival time, dose: 100.0 mg/kg/injection, schedule: Q04DX003 (ip), vehicle: saline) 113 % of control and 115 % of control. The T/C (endpoint: median survival time, dose: 200.0 mg/kg/injection, schedule: Q04DX003 (ip), vehicle: saline) is 161 % of control.

With `CN(N)c1nc2c(=O)[nH]cnc2n1C1OC(CO)C(O)C1O` (centres undefined), the T/C by setting is: (endpoint: mean survival time, dose: 12.5 mg/kg/injection, schedule: Q01DX005 (ip), vehicle: water) 104 % of control; (endpoint: mean survival time, dose: 25.0 mg/kg/injection, schedule: Q01DX005 (ip), vehicle: water) 101 % of control; (endpoint: mean survival time, dose: 50.0 mg/kg/injection, schedule: Q01DX005 (ip), vehicle: water) 95 % of control; (endpoint: mean survival time, dose: 100.0 mg/kg/injection, schedule: Q01DX005 (ip), vehicle: water) 103 % of control; (endpoint: mean survival time, dose: 200.0 mg/kg/injection, schedule: Q01DX005 (ip), vehicle: water) 95 % of control.

As to `NC(N)=N/N=C/C/C=N/N=C(N)N`, the T/C by setting is: (endpoint: mean survival time, dose: 30.0 mg/kg/injection, schedule: Q01DX009 (ip), vehicle: saline) 91 % of control; (endpoint: mean survival time, dose: 60.0 mg/kg/injection, schedule: Q01DX009 (ip), vehicle: saline) 90 % of control; (endpoint: mean survival time, dose: 120.0 mg/kg/injection, schedule: Q01DX009 (ip), vehicle: saline) 93 % of control; (endpoint: mean survival time, dose: 240.0 mg/kg/injection, schedule: Q01DX009 (ip), vehicle: saline) 90 % of control; (endpoint: mean survival time, dose: 480.0 mg/kg/injection, schedule: Q01DX009 (ip), vehicle: saline) 90 % of control.

In the case of `COc1c(NS(=O)(=O)c2ccccc2)cc2c3c(cccc13)/C(=C1\Cc3cccc4c(OC)c(NS(=O)(=O)c5ccccc5)cc1c34)C2`, the T/C under setting [1] was 95 % of control, the T/C under setting [2] was 91 % of control and the T/C under setting [3] is 92 % of control.

Turning to `O=C1CC(=O)NC(=O)C1`, the T/C runs as follows: (endpoint: mean survival time, dose: 12.5 mg/kg/injection, schedule: Q01DX009 (ip), vehicle: water) 95 % of control; (endpoint: mean survival time, dose: 25.0 mg/kg/injection, schedule: Q01DX009 (ip), vehicle: water) 92 % of control; (endpoint: mean survival time, dose: 50.0 mg/kg/injection, schedule: Q01DX009 (ip), vehicle: water) 94 % of control; (endpoint: mean survival time, dose: 100.0 mg/kg/injection, schedule: Q01DX009 (ip), vehicle: water) 92 % of control; (endpoint: mean survival time, dose: 200.0 mg/kg/injection, schedule: Q01DX009 (ip), vehicle: water) 94 % of control.

On to `CSCC(N)C(=O)O` (centres undefined), for which the T/C under setting [4] is 103 % of control, the T/C under setting [5] is 103 % of control and the T/C under setting [6] is 97 % of control.

For `CC(CO)CCC(=O)C(C)C1C(=O)CC2[C@H]3CC=C4C[C@H](O)CC[C@@]4(C)C3CC[C@@]12C` (some centres undefined), the T/C was 94 % of control (endpoint: mean survival time, dose: 50.0 mg/kg/injection, schedule: Q01DX001 (ip), vehicle: saline with Tween-80); 97 % of control under setting [7]; 95 % of control under setting [8].

In the case of `C=C(C)[C@@H]1CC[C@]2(CO)CC[C@]3(C)[C@H](CC[C@@H]4[C@@]5(C)CC[C@H](O)C(C)(C)[C@@H]5CC[C@]43C)[C@@H]12`, the T/C reads like this: (endpoint: mean survival time, dose: 100.0 mg/kg/injection, schedule: Q01DX001 (ip), vehicle: saline) 98 % of control; (endpoint: mean survival time, dose: 200.0 mg/kg/injection, schedule: Q01DX001 (ip), vehicle: saline) 98 % of control; (endpoint: mean survival time, dose: 400.0 mg/kg/injection, schedule: Q01DX001 (ip), vehicle: saline) 98 % of control.

For `COc1cccc2c1C(=O)c1c(O)c3c(c(O)c1C2=O)C[C@@](O)(C(=O)CO)C[C@@H]3OC1CC(NC=O)C(O)C(C)O1` (some centres undefined), the T/C (endpoint: mean survival time, dose: 6.25 mg/kg/injection, schedule: Q04DX003 (ip), vehicle: water) was 93 % of control; the T/C (endpoint: mean survival time, dose: 12.5 mg/kg/injection, schedule: Q04DX003 (ip), vehicle: water) was 93 % of control; the T/C under setting [9] was 102 % of control; the T/C under setting [10] was 112 % of control; the T/C under setting [11] was 114 % of control.

As for `Nc1ncnc(N)c1NC(=O)c1ccc(Cl)c([N+](=O)[O-])c1`, the T/C under setting [1] is 94 % of control, the T/C under setting [2] is 93 % of control and the T/C under setting [3] was 88 % of control.

As for `CC(=O)OC1CCC2(C)C(CCC3C2CCC2(C)C(C(C)=O)CCC32)C1` (centres undefined), the T/C was 103 % of control (endpoint: mean survival time, dose: 100.0 mg/kg/injection, schedule: Q04DX003 (sc), vehicle: steriod suspending solution); 97 % of control (endpoint: mean survival time, dose: 200.0 mg/kg/injection, schedule: Q04DX003 (sc), vehicle: steriod suspending solution); 107 % of control (endpoint: mean survival time, dose: 400.0 mg/kg/injection, schedule: Q04DX003 (sc), vehicle: steriod suspending solution).

With `Cc1c2ccn(O)cc2c(C)c2c1nc1ccccc12`, the T/C by setting is: under setting [9], 110 % of control; under setting [10], 103 % of control; under setting [11], 110 % of control; (endpoint: mean survival time, dose: 200.0 mg/kg/injection, schedule: Q04DX003 (ip), vehicle: water) 105 % of control; (endpoint: mean survival time, dose: 400.0 mg/kg/injection, schedule: Q04DX003 (ip), vehicle: water) 106 % of control.

In the case of `N#CC(Cl)(Cl)C(N)=O`, the T/C reads like this: (endpoint: mean survival time, dose: 1.56 mg/kg/injection, schedule: Q04DX002 (ip), vehicle: saline) 102 % of control; (endpoint: mean survival time, dose: 3.13 mg/kg/injection, schedule: Q04DX002 (ip), vehicle: saline) 92 % of control; (endpoint: mean survival time, dose: 6.25 mg/kg/injection, schedule: Q04DX002 (ip), vehicle: saline) 98 % of control.

On to `N#CC(=C1CCN(Cc2ccccc2)CC1)c1ccccc1`, for which the T/C (endpoint: median survival time, dose: 50.0 mg/kg/injection, schedule: Q04DX002 (ip), vehicle: saline with Tween-80) is 100 % of control; the T/C (endpoint: median survival time, dose: 100.0 mg/kg/injection, schedule: Q04DX002 (ip), vehicle: saline with Tween-80) is 100 % of control; the T/C (endpoint: median survival time, dose: 200.0 mg/kg/injection, schedule: Q04DX002 (ip), vehicle: saline with Tween-80) is 111 % of control.

Turning to `O=S(=O)(O)c1cc(N=Nc2cccc3ccccc23)c(O)c2ncccc12`, the T/C was 104 % of control under setting [1], 97 % of control under setting [2] and 106 % of control under setting [3].

In the case of `CCO[Si](C)(CCCOCC1CO1)OCC` (centres undefined), the T/C is, setting by setting: (endpoint: mean survival time, dose: 50.0 mg/kg/injection, schedule: Q01DX009 (ip), vehicle: Klucel (hydroxypropylcellulose) (HPC)) 102 % of control; (endpoint: mean survival time, dose: 100.0 mg/kg/injection, schedule: Q01DX009 (ip), vehicle: Klucel (hydroxypropylcellulose) (HPC)) 100 % of control; (endpoint: mean survival time, dose: 200.0 mg/kg/injection, schedule: Q01DX009 (ip), vehicle: Klucel (hydroxypropylcellulose) (HPC)) 94 % of control.

For the compound `CCN=C(NCC)S(=O)O`, the T/C was 90 % of control under setting [4], 97 % of control under setting [5] and 103 % of control under setting [6].

On to `CCC(C)C(NC(=O)CN)C(=O)O` (centres undefined) (H-Gly-[ξI]-OH), for which the T/C by setting is: (endpoint: mean survival time, dose: 100.0 mg/kg/injection, schedule: Q04DX002 (ip), vehicle: saline with Tween-80) 100 % of control; (endpoint: mean survival time, dose: 100.0 mg/kg/injection, schedule: Q04DX002 (ip), vehicle: saline) 94 % of control; (endpoint: mean survival time, dose: 200.0 mg/kg/injection, schedule: Q04DX002 (ip), vehicle: saline with Tween-80) 103 % of control; (endpoint: mean survival time, dose: 200.0 mg/kg/injection, schedule: Q04DX002 (ip), vehicle: saline) 90 % of control; (endpoint: mean survival time, dose: 400.0 mg/kg/injection, schedule: Q04DX002 (ip), vehicle: saline with Tween-80) 95 % of control; (endpoint: mean survival time, dose: 400.0 mg/kg/injection, schedule: Q04DX002 (ip), vehicle: saline) 101 % of control.

For the compound `O=C(NCCNC(c1ccccc1)C(NCCNC(=O)c1ccccc1)c1ccccc1)c1ccccc1` (centres undefined), the T/C under setting [7] was 92 % of control; the T/C under setting [8] is 96 % of control; the T/C (endpoint: mean survival time, dose: 400.0 mg/kg/injection, schedule: Q01DX001 (ip), vehicle: saline with Tween-80) is 92 % of control.
